Biological target: human GPR120 (Homo sapiens (Human), UniProt Q5NUL3)
Assay: GPR120 pERK AlphaScreen SureFire Assay (human GPR120 pERK assay)
Assay type: cell-based
Details: CHO cells stably transfected with short form of human GPR120
From the text: GPR120 activity was monitored by measuring phosphorylation of ERK (pERK), since G protein receptors are known to activate the ERK signaling cascade either directly and/or through recruitment of arrestin that serves as a scaffold for downstream signaling events.
GPR120 pERK AlphaScreen SureFire Assay
The human and mouse GPR120-mediated intracellular phosphorylated ERK assays were established using CHOA12 cells stably transfected with the short form of human or mouse GPR120 receptor. Cells were cultured in growth medium consisting of F-12 media (Invitrogen Cat. #11765) with 5% Charcoal/Dextran FBS (Invitrogen Cat. #12676-029), 500 μg/mL GENETICIN® (Life Technologies Cat. #10131-027) and 250 μg/mL Zeocin (Invitrogen Cat. #R250-01). Cells were cryo-preserved at a concentration of 2×10^7 cells/mL, in 90% Charcoal/Dextran FBS and 10% DMSO, and frozen in liquid nitrogen at a low passage number.
For the pERK assay, 2×10^7 cells/mL cryopreserved human and mouse cells were thawed rapidly in a 37° C. water bath and added to a T-225 flask containing 50 mL growth medium. The flasks were placed in a tissue culture incubator overnight (37° C., 5% CO2). The next day, cells were harvested with trypsin (Gibco Cat. #25300-054), resuspended in serum-containing growth medium and counted using a Cellometer and volume adjusted to a concentration of 0.6×10^6 cells/mL. Cells were plated into 384-well clear bottom tissue culture plates (BD Cat. #353962) at 50 μL/well, for a density of 30,000 cells/well using a MULTIDROP® and incubated for 16-18 hours (overnight) at 37° C. with 5% CO2. The next day, cells were serum starved in 30 μL of F-12 media without any serum or antibiotics for 2 hours at 37° C.
Test compounds were 3-fold, 11-point serially diluted in DMSO in a REMP assay plate (Matrix Cat. #4307) by Tecan and 5 μL was transferred into an ECHO source plate (Labcyte Cat. #LC-0200). Cells were then stimulated with 50 nL of compound dilutions using ECHO liquid handler for 7 min at 37° C. Compounds ranged from final assay concentrations of 33.33 μM to 0.56 nM.
The media was then dumped and cells lysed with 20 μL of 1× Lysis buffer from the AlphaScreen SureFire Phospho-ERK 1/2 Kit (Perkin Elmer Cat. #6760617M). The lysis buffer was diluted 5-fold with water before use. The plate was agitated on a shaker for 10 min after which 2 μL was transferred into a 384-well white proxiplate (Perkin Elmer Cat. #6008289). The SureFire assay reagent mix was prepared by mixing 60 parts Reaction Buffer, 10 parts Activation Buffer, 1 part Donor Beads, 1 part Acceptor Beads (Perkin Elmer Cat. #TGRES10K). 3.5 μL/well of this reagent mix was manually added to the proxiplate with a multichannel pipettor. Plates were spun down at 1000 rpm for 2 min, followed by light-protected incubation at room temperature for 2 hours. The plates were read on the Alpha-technology compatible Envision multilabel plate reader using AlphaScreen protocol according to manufacturer's specifications. The agonist effect of compounds was expressed as 100×(average sample-average blank)/(average total-average blank) where sample is the luminescence activity in the presence of test compound, blank is equal to the luminescence activity in the presence of DMSO control and the total is signal induced by 50 μM linolenic acid as reference compound. Activation data for the test compound over a range of concentrations was plotted as percentage activation of the test compound (100%=maximum response). After correcting for background, EC50 values were determined. The EC50 is defined as the concentration of test compound which produces 50% of the maximal response and was quantified using the 4 parameter logistic equation to fit the data.
The human and mouse GPR120-mediated intracellular phosphorylated ERK assays were also established using CHO-K1 cells stably transfected with the short form of human or mouse GPR120 receptor. […]

human GPR120, sequence (Q5NUL3 whole entry): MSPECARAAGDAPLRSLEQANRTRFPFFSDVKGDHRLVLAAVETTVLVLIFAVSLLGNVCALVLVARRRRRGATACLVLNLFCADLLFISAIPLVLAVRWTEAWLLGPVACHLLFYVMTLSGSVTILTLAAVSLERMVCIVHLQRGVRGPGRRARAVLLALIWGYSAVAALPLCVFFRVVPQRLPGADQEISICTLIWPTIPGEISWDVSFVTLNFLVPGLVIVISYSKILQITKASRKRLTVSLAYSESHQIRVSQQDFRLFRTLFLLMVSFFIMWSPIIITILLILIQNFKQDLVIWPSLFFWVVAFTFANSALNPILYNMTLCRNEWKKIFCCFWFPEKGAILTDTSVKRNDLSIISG

Row | EC50 | SMILES
1 | 0.19 µM | Cc1ccc(Oc2ccc(F)c(-c3ccc(OCC4C[C@H]4C(=O)O)cc3)c2)cn1 (stereo partly shown) [Example 115]
2 | 0.17 µM | Cc1ccc(Oc2ccc(F)c(-c3ccc(OC[C@@H]4C[C@H]4C(=O)O)c(F)c3)c2)cn1 (racemic) [Example 103, Trans-2-(((2′,3-difluoro-5′-((6-methylpyridin-3-yl)oxy)-[1,1′-biphenyl]-4-yl)oxy)methyl)cyclopropanecarboxylic acid]
3 | 3.05 µM | O=C(O)[C@@H]1C[C@H]1COc1ccc(-c2cnn(Cc3ccccc3)c2)cc1 (racemic) [Example 83, Trans-2-((4-(1-benzyl-1H-pyrazol-4-yl)phenoxy)methyl)cyclopropanecarboxylic acid]
4 | 0.47 µM | O=C(O)C1CC1COc1ccc(-c2cc(OC(F)(F)F)ccc2F)cc1 (racemic) [Example 51, Trans-2-(((2′-fluoro-5′-(trifluoromethoxy)-[1,1′-biphenyl]-4-yl)oxy)methyl)cyclopropanecarboxylic acid]
5 | 2.04 µM | CC(C)Oc1cc(-c2ccc(OC[C@@H]3C[C@H]3C(=O)O)cc2)cc(C(F)(F)F)c1 (racemic) [Example 47, Trans-2-(((3′-isopropoxy-5′-(trifluoromethyl)-[1,1′-biphenyl]-4-yl)oxy)methyl)cyclopropanecarboxylic acid]
6 | 4.31 µM | Cc1nn(Cc2ccccc2)cc1-c1ccc(OC[C@@H]2C[C@H]2C(=O)O)cc1 (racemic) [Example 84, Trans-2-((4-(1-benzyl-3-methyl-1H-pyrazol-4-yl)phenoxy)methyl) cyclopropanecarboxylic acid]
7 | 6.09 µM | COc1ncc(Cl)cc1-c1ccc(CC[C@@H]2C[C@H]2C(=O)O)cc1 (racemic) [Example 78, Trans-2-(4-(5-chloro-2-methoxypyridin-3-yl)phenethyl) cyclopropanecarboxylic acid]
8 | 2.11 µM | O=C(O)[C@@H]1C[C@@H]1COc1ccc(-c2cc(Oc3ccccc3)ccc2F)cc1 (single isomer, unassigned) [Example 5]
9 | 0.43 µM | CC(C)Oc1ccc(F)c(-c2ccc(C[C@H]3C[C@H]3CC(=O)O)cc2)c1 (racemic) [Example 34, Cis-2-(2-((2′-fluoro-5′-isopropoxy-[1,1′-biphenyl]-4-yl)methyl)cyclopropyl)acetic acid]
10 | 0.41 µM | O=C(O)[C@H]1C[C@H]1COc1ccc(-c2cc(Oc3ccccc3)ccc2F)cc1 (single isomer, unassigned) [Example 6]
11 | 4.96 µM | Cc1cc(-c2ccc(OC[C@@H]3C[C@H]3C(=O)O)cc2)n(-c2ccc(Cl)cc2)n1 (racemic) [Example 82, Trans-2-((4-(1-(4-chlorophenyl)-3-methyl-1H-pyrazol-5-yl)phenoxy)methyl) cyclopropanecarboxylic acid]
12 | 1.25 µM | O=C(O)[C@@H]1C[C@H]1COc1ccc(-c2cc(C(F)(F)F)ccc2Cl)cc1 (racemic) [Example 121, Trans-2-(((2′-chloro-5′-(trifluoromethyl)-[1,1′-biphenyl]-4-yl)oxy)methyl)cyclopropanecarboxylic acid]
13 | 0.18 µM | CC(C)Oc1ccc(F)c(-c2ccc(OC[C@@H]3C[C@H]3C(=O)O)c(C(F)(F)F)c2)c1 (racemic) [Example 88, Trans-2-(((2′-fluoro-5′-isopropoxy-3-(trifluoromethyl)-[1,1′-biphenyl]-4-yl)oxy)methyl) cyclopropanecarboxylic acid]
14 | 0.08 µM | O=C(O)[C@@H]1C[C@H]1COc1ccc(-c2cc(Oc3ccccc3)ccc2F)cc1F (single isomer, unassigned) [Example 10]
15 | 0.23 µM | CC(C)Oc1cc(F)c(F)c(-c2ccc(OC[C@H]3C[C@@H]3C(=O)O)c(F)c2)c1 [Example 67, (1S,2S)-2-(((2′,3,3′-Trifluoro-5′-isopropoxy-[1,1′-biphenyl]-4-yl)oxy)methyl)cyclopropanecarboxylic acid]
16 | 0.43 µM | O=C(O)[C@@H]1C[C@H]1COc1ccc(-c2cc(Oc3ccccc3)cnc2Cl)cc1 (racemic) [Example 110, Trans-2-((4-(2-chloro-5-phenoxypyridin-3-yl)phenoxy)methyl)cyclopropanecarboxylic acid]

From patent US9938222B2 (BRISTOL-MYERS SQUIBB COMPANY, priority 2014, dated 2018)
